Tests used:
MCF10A cells [1] = assay: Chemical inhibition of Latrunculin-A-enhanced microtubule protrusions in suspended cells; type: cell-based, human; conditions: MCF10A in suspension, then LA 5 μM one hour; sodium orthovanadate 1 mM, S-Trityl-L-Cysteine 100 μM, TDZD-8 20 μM
Method: MCF10A cells were placed into suspension in the presence of the indicated chemical inhibitors targeted at specific signaling pathways or the corresponding vehicle controls. Cells were then treated with the actin polymerization inhibitor, Latrunculin-A (LA, 5 μM) for one hour to enhance protrusions. […] Thus, protrusions can be reduced by chemical inhibition of specific signaling proteins.

microtentacles = assay: Microtentacle frequency after pretreatment with Okadaic Acid or Calyculin-A; type: cell-based; conditions: pretreated 1 h, suspended with or without Latrunculin-A
Method: In FIG. 35, cells were pretreated for 1 h with DMEM media alone (Control) or the indicated concentrations of either Okadaic Acid (OKA) […] or Calyculin-A (Cal-A) to promote vimentin disassembly. Cells were then suspended by trypsinization with or without addition of Latrunculin-A (LA) to enhance microtentacle frequency.

[2] = system: detached mammary epithelial cells; assay: Protrusions of detached mammary epithelial cells, general statements; type: cell-based, human and mouse
Method: Time-lapse video microscopy of detached mammary epithelial cells detected the extension of long, dynamic protrusions of the plasma membrane, and the present inventors have characterized the cytoskeletal mechanism underlying this novel observation. […] This response may be relatively short-lived, in specific embodiments, since mammary epithelial cells die by apoptosis within about 24 hours in suspension. However, cell lines that resist apoptosis through expression of either Bcl-2 or Bcl-xL will persistently form protrusions. Previous studies by the inventors indicate that such apoptotically-resistant cell lines will not form tumors in mice and lie dormant in distant tissues, in specific embodiments of the invention. […] These microtubule processes can extend more than 3 times the cell diameter, and undergo a rapid probing motion more than once per second. Formation of these microtubule protrusions is necessary for efficient cell-cell and cell-substratum attachment. In particular embodiments of the invention, this inherent microtubule response in detached mammary epithelial cells provides at least some of the invasive characteristics of breast cancer, independent of any tumor-specific genetic alteration, for example.
Breast tumor cells enter the bloodstream long before the development of clinically evident metastasis. However, the early presence of such bloodborne cells predicts poor patient outcome. Nearly 90% of human breast tumors arise as carcinomas from mammary epithelial cells, so it is important to characterize how these cells respond to the detached conditions that they would experience in the bloodstream. In the present invention, mammary epithelial cell lines produce long and dynamic protrusions of the plasma membrane when detached. Although human and mouse mammary epithelial cell lines die by apoptosis within 16 hours of detachment, this protrusive response persists for days in cells overexpressing either Bcl-2 or Bcl-xL, for example. […] Since bloodborne metastasis depends on both cell-cell and cell-matrix attachment, microtubule-based protrusions in detached mammary epithelial cells provide a novel target that could influence the metastatic spread of breast tumors.
Detachment-induced increases in Glu-tubulin could promote plasma membrane protrusions of microtubules by preventing efficient capture at the actin cortex. […] Therefore, our current model is that detachment increases stabilized microtubules enriched in Glu-tubulin, while decreased actin polymerization simply promotes extension of these microtubule protrusions.

EpH4 cells = assay: Protrusions in suspended cells treated with cytoskeletal inhibitors (EpH4); type: cell-based, mouse; conditions: EpH4, 15 minutes of suspension; Latrunculin-A 5 μM, Colchicine 1 μM
Method: (§1) In FIG. 2A, after 15 minutes of suspension, protrusions in EpH4 and MCF10A cells are quite small (Control, white arrows). […] In FIG. 2B, populations of live, suspended cells were scored blindly for two or more protrusions longer than the cell radius. Each bar represents the mean+S.D. for three experiments in which at least 100 single cells were counted.
EpH4 cells were suspended in either DMEM (Control) or media containing 5 μM Latrunculin-A (LA), 1 μM Colchicine or the combination of both drugs for 30 minutes. Cells were then spun onto glass coverslips and fluorescently stained for α-tubulin (green) and polymerized actin (red). Protrusions that are difficult to see by phase contrast are easily discernible with immunostaining for α-tubulin (white arrows). Protrusions contain little polymerized actin, except at points of concentration, which are often at the end (arrowhead).
EpH4 and B19 cells were suspended over 2% agarose coated plates to prevent attachment in either serum-free DMEM or media containing. Latrunculin-A (5 μM) to enhance protrusions. For co-staining of α-tubulin and actin, suspended cells were then centrifuged onto poly-L-lysine coated coverslips (280 g×5 min), fixed in 3.7% formaldehyde in PBS for 10 min, and permeablized with 0.1% Triton X-100 in PBS. Adhered cells were then stained for 1 hr at room temperature using FITC-conjugated anti-α-tubulin (1:200; Sigma), Alexa-594 phalloidin (1:100; Molecular Probes), and Hoescht 33342 (1:5000; Sigma).
(§2) In order to initially characterize the cytoskeletal mechanism underlying these protrusions, suspended cells were treated with inhibitors of actin and tubulin polymerization (FIG. 2). After 15 minutes of suspension, the protrusions in untreated EpH4 or MCF10A cells remain fairly short (FIG. 2, white arrows). These early protrusions can often be difficult to detect with phase-contrast microscopy, due to interfering light refraction from the plasma membrane. […] Protrusions were more easily visible with immunofluorescence than phase contrast microscopy (FIG. 3, white arrows). Although actin filament staining was generally low along the length of the protrusion, dense points of actin were often found at the end of protrusions (FIG. 3, arrowheads).

MCF10A cells [3] = assay: Protrusions in suspended cells treated with cytoskeletal inhibitors (MCF10A); type: cell-based, human; conditions: MCF10A, 15 minutes of suspension; Latrunculin-A 5 μM, Colchicine 1 μM
Method: as §1, §2
The nontumorigenic human mammary epithelial cell line (MCF10A) or the indicated human breast tumor cell lines were grown in suspension for 30-60 minutes, and protrusions were counted in random fields with phase-contrast microscopy. Values represent the mean±S.D. of three experiments in which at least 100 cells were counted. […] This effect was most apparent in the highly metastatic but exemplary Bt-474 and MDA-MB-231 cells (pictured, black arrows). The exemplary MCF10A cells show far fewer and shorter protrusions at the same time point (pictured, white arrows). Such protrusions are not observed in attached cells.

EpH4-Bcl2 cells [4] = assay: Cell-substratum attachment assay; type: cell-based, mouse; conditions: for attachment of cells to tissue culture surfaces: EpH4-Bcl2 (B19), 1 hr in suspension with inhibitor, then replated
Method: (§3) In FIG. 6A, EpH4-Bcl2 cells were suspended over agarose and treated with inhibitors as above. Following treatment, cells were plated into 0.3% methylcellulose media over agarose and the rate of cell-cell attachment was followed by Hoescht DNA staining. […] Similar results were found in three independent experiments. In FIG. 6B, EpH4-Bcl2 cells suspended over agarose for one hour in DMEM or DMEM containing LA (5 μM), Colchicine (1 μM), or the combination. Reattachment of these cells to either uncoated tissue culture plates or those pre-coated with laminin was followed by XTT cell viability assay. Values represent mean+S.D. of raw XTT values of three separate experiments.
Equivalent numbers of B19 cells were suspended over 6-well plates coated in 2% agarose in serum-free media containing 5 μM Latrunculin-A (LA; BioMol, Plymouth Meeting, Pa.), 100 μM colchicine (Col; Sigma, St. Louis, Mo.), 5 μg/ml nocodazole (Noc), or 1 μg/ml vinblastine (VinB; Sigma) for a duration of 1 hr at 37° C. Cells were collected by centrifugation (1000 rpm×5 min) and drug containing media was aspirated. Cells were resuspended in EpH4 serum-containing growth media and aliquoted out into 24 wells (8 timepoints×3 replicates) of a 96-well clear bottom black plate. After plating, cells were allowed to attach for duration of 15 min, 45 min, 1.5 hr, 2 hr, 3 hr, 4 hr, 5 hr, and 24 hr at which point the media was aspirated from the replicate wells, washed twice in PBS, and fresh growth media was replaced at each timepoint. After 24 hr, all wells were aspirated and cells were incubated in growth media containing Hoescht 33342 (1:5000) for 30 min at 37° C. to label all attached cells. Fluorescence was measured using a Biotek Synergy HT Multi-Detection Microplate Reader (Winooski, Vt.) at excitation wavelength 360 nm and an emission filter of 460 nm followed by subsequent analysis using the KC4 Data Analysis software. The percentage of cell attachment for each treatment exposure was calculated as the RFU at each timepoint divided by the RFU at 24 h (maximum attachment). The standard deviations of triplicates at each timepoint are shown.
(§4) To determine if these microtubule protrusions influence the ability of cells to form attachments, the cells were treated with inhibitors of actin or tubulin polymerization and assessed both cell-cell and cell-substratum attachment (FIG. 6). […] Induction of such nonspecific attachment activity in detached mammary epithelial cells could promote tumor cell dissemination, particularly when apoptotic resistance allows this response to continue for extended periods.

EpH4-Bcl2 cells [5] = assay: Cell-cell attachment assay; type: cell-based, mouse; conditions: EpH4-Bcl2 in 0.3% methylcellulose over agarose, 5 hours
Method: as §3
B19 cells were seeded onto 10 cm dishes until 80% confluency. The media was aspirated and cells were incubated in fresh growth media containing Hoescht 33342 (1:5000) for 30 min at 37° C. to label all attached cells. The cells were washed twice in PBS, detached by trypsinization, and an equivalent number of cells were resuspended in serum-free media containing 0.3% methylcellulose with either 5 μM Latrunculin A, 100 μM Colchicine, 1 μg/ml vinblastine, or 5 μg/ml nocodazole and plated over 2% agarose-coated 24-well plates. The progression of cell-cell adhesion over time was visualized by the EpiChemi3 Imaging System (UVP, Inc.; Upland, Calif.) using an excitation wavelength of 365 nm and a blue band pass filter. Images were obtained with an attached Hamamatsu CCD camera (Hamamatsu Photonics, Hamamatsu City, Japan) and analyzed with UVP Labworks Image Acquisition and Analysis Software v. 4.6.
as §4

Bt-474 = assay: GFP-membrane protrusion counts after local anesthetics (Bt-474); type: cell-based, human; conditions: Bt-474, GFP-membrane; Lidocaine 50 mM, Tetracaine 2.5 mM; with or without LA
Method: (§5) Cells were then suspended in DMEM culture media with or without […] Latrunculin-A (LA) to induce protrusions by depolymerizing actin. […] Bars represent mean+S.D. of at least three blindly counted experiments.

MDA-231 = assay: GFP-membrane protrusion counts after local anesthetics (MDA-231); type: cell-based, human; conditions: MDA-231, GFP-membrane; Lidocaine 50 mM, Tetracaine 2.5 mM; with or without LA
Method: as §5

metastasis = conditions: known, via unclear mechanism; cited from earlier work

CCCCCC[C@@H]([C@@H](C)O)n1cnc2c(N)ncnc21 (racemic) [EHNA]
protrusions (MCF10A cells [1]): reduced protrusions, but these results were not statistically significant

COC[C@@H]([C@H](O)[C@H](O)C(=O)NCC[C@H](C)c1nc(/C=C/C[C@@H]2O[C@]3(C[C@@H](O)[C@@H]2C)O[C@H]([C@H](C[C@H](O)[C@H](C)[C@H](O)[C@H](C)/C=C(C)/C(C)=C/C=C/C(C)=C\C#N)OC)[C@H](OP(=O)(O)O)C3(C)C)co1)N(C)C [Calyculin-A]
microtentacles (microtentacles): reduce microtentacles significantly
microtentacles (microtentacles; listed as calyculin-A): reduces microtentacles

COc1cc2c(c(OC)c1OC)-c1ccc(OC)c(=O)cc1[C@@H](NC(C)=O)CC2 [Colchicine]
protrusions [2]: inhibited
protrusions (EpH4 cells): prevented protrusions
protrusions (MCF10A cells [3]): prevented protrusions
attachment of cells to tissue culture surfaces (EpH4-Bcl2 cells [4]): significantly delayed attachment
cell-surface attachment to uncoated or laminin-coated plates (XTT) (EpH4-Bcl2 cells [4]; EpH4-Bcl2 suspended one hour, LA 5 μM, Colchicine 1 μM): significantly prevents initial cell attachment
cell-cell attachment (clustering) (EpH4-Bcl2 cells [5]): prevented efficient clustering

CCN(CC)CC(=O)Nc1c(C)cccc1C [Lidocaine]
protrusions (Bt-474): inhibited significantly
protrusions (MDA-231): inhibited significantly
metastasis (metastasis): reduce metastasis

C=C1[C@@H](O)[C@@H]2O[C@]3(CC[C@H](/C=C/[C@@H](C)[C@@H]4CC(C)=C[C@@]5(O[C@H](C[C@@](C)(O)C(=O)O)CC[C@H]5O)O4)O3)CC[C@H]2O[C@@H]1[C@@H](O)C[C@H](C)[C@H]1O[C@@]2(CCCCO2)CC[C@H]1C [Okadaic acid]
microtentacles (microtentacles): reduce microtentacles significantly
microtentacles (microtentacles; listed as okadaic acid): reduces microtentacles

N[C@@H](CSC(c1ccccc1)(c1ccccc1)c1ccccc1)C(=O)O [S-Trityl-L-Cysteine]
protrusions (MCF10A cells [1]): significantly reduces protrusions

CN[C@H]1CCc2cc(OC)c(OC)c(OC)c2-c2ccc(OC)c(=O)cc21 [colcemid]
protrusions [2]: inhibited

COc1ccc(CNc2nc(NCc3ccc(OC)cc3)c3ncn(C(C)C)c3n2)cc1 [myoseverin]
protrusions [2]: inhibited

COC(=O)Nc1nc2ccc(C(=O)c3cccs3)cc2[nH]1 [nocodazole]
protrusions [2]: inhibited
attachment of cells to tissue culture surfaces (EpH4-Bcl2 cells [4]): significantly delayed attachment
cell-cell attachment (clustering) (EpH4-Bcl2 cells [5]): prevented efficient clustering

[Na+].[Na+].[Na+].[O]=[V]([O-])([O-])[O-] [sodium orthovanadate]
protrusions (MCF10A cells [1]): significantly reduces protrusions

CC[C@]1(O)C[C@@H]2CN(CCc3c([nH]c4ccccc34)[C@@](C(=O)OC)(c3cc4c(cc3OC)N(C)[C@H]3[C@@](O)(C(=O)OC)[C@H](OC(C)=O)[C@]5(CC)C=CCN6CC[C@]43[C@@H]65)C2)C1 [vinblastine]
protrusions [2]: inhibited
attachment of cells to tissue culture surfaces (EpH4-Bcl2 cells [4]): significantly delayed attachment
cell-cell attachment (clustering) (EpH4-Bcl2 cells [5]): prevented efficient clustering

CC[C@]1(O)C[C@H]2CN(CCc3c([nH]c4ccccc34)[C@@](C(=O)OC)(c3cc4c(cc3OC)N(C=O)[C@H]3[C@@](O)(C(=O)OC)[C@H](OC(C)=O)[C@]5(CC)C=CCN6CC[C@]43[C@@H]65)C2)C1 [vincristine]
protrusions [2]: inhibited

— US8193238B2, “Inhibition of microtubule protrusion in cancer cells” (University of Maryland, Baltimore, priority 2006, dated 2012)
